According to patent US8952024B2, “Herbicidal pyrimidone derivatives” (E I du Pont de Nemours and Company, priority 2009, dated 2015):

Legend:
Experiment in all cases: Test B pre-/postemergence plant response
Assay type in all cases: in vivo
[1] = test system: lambsquarters (Chenopodium album)
In short: (§1)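 Each species received compound formulated in non-phytotoxic solvent with surfactant, either at planting into a loam and sand blend or as a foliar spray once plants reached 2 to 18 cm in peat-based medium. Plants stayed in the greenhouse 13 to 15 days before visual evaluation against controls, scored 0 (no effect) to 100 (complete control).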

[2] = test system: woolly cupgrass (Eriochloa villosa)
In short: as §1

[3] = test system: blackgrass (Alopecurus myosuroides)
In short: as §1

soybean (Glycine max) = test system: soybean (Glycine max)
In short: as §1

wild oat (Avena fatua) = test system: wild oat (Avena fatua)
In short: as §1

[4] = test system: johnsongrass (Sorghum halepense)
In short: as §1

[5] = test system: pigweed (Amaranthus retroflexus)
In short: as §1

[6] = test system: goosegrass (Eleusine indica)
In short: as §1

[7] = test system: Surinam grass (Brachiaria decumbens)
In short: as §1

[8] = test system: yellow nutsedge (Cyperus esculentus)
In short: as §1

[9] = test system: velvetleaf (Abutilon theophrasti)
In short: as §1

[10] = test system: morningglory (Ipomoea coccinea)
In short: as §1

kochia (Kochia scoparia) = test system: kochia (Kochia scoparia)
In short: as §1

[11] = test system: large crabgrass (Digitaria sanguinalis)
In short: as §1

corn (Zea mays) = test system: corn (Zea mays)
In short: as §1

[12] = test system: green foxtail (Setaria viridis)
In short: as §1

[13] = test system: downy bromegrass (Bromus tectorum)
In short: as §1

[14] = 250 g ai/ha, Preemergence, 0 to 100 scale
[15] = Postemergence, 31 g ai/ha, scale 0 to 100 (0 no effect, 100 complete control)
[16] = Postemergence, 62 g ai/ha, scale 0 (no effect) to 100 (complete control), 13 to 15 days
[17] = Postemergence, 125 g ai/ha, visual rating after 13 to 15 days, scale 0 (no effect) to 100 (complete control)
[18] = Postemergence, 250 g ai/ha, scale 0 to 100
[19] = Preemergence, 31 g ai/ha, scale 0 to 100 (0 no effect, 100 complete control)
[20] = Preemergence, 125 g ai/ha, 0 to 100 scale
[21] = Preemergence, 62 g ai/ha, scale 0 to 100, 0 no effect, 100 complete control

5-[(1-ethyl-5-hydroxy-1H-pyrazol-4-yl)carbonyl]-2-phenyl-3-(phenylmethyl)-4(3H)-pyrimidinone [Compound 20]
Plant response rating, Lambsquarters [1, 14]: 100 | Plant response rating, Lambsquarters [1, 15]: 85 | Plant response rating, Lambsquarters [1, 16]: 95 | Plant response rating, Lambsquarters [1, 17]: 98 | Lambsquarters plant response rating [1, 18]: 100 | Plant response rating, Lambsquarters [1, 19]: 100 | Lambsquarters plant response rating [1, 20]: 100 | Plant response rating, Cupgrass, Woolly [2, 14]: 10 | Plant response rating, Cupgrass, Woolly [2, 15]: 0 | Plant response rating, Cupgrass, Woolly [2, 16]: 15 | Plant response rating, Cupgrass, Woolly [2, 17]: 20 | Cupgrass, Woolly plant response rating [2, 18]: 55 | Plant response rating, Cupgrass, Woolly [2, 19]: 0 | Plant response rating, Cupgrass, Woolly [2, 21]: 0 | Cupgrass, Woolly plant response rating [2, 20]: 0 | Plant response rating, Blackgrass [3, 14]: 0 | Plant response rating, Blackgrass [3, 15]: 0 | Plant response rating, Blackgrass [3, 16]: 0 | Plant response rating, Blackgrass [3, 17]: 0 | Blackgrass plant response rating [3, 18]: 5 | Plant response rating, Blackgrass [3, 19]: 0 | Plant response rating, Blackgrass [3, 21]: 0 | Blackgrass plant response rating [3, 20]: 0 | Plant response rating, Soybean (soybean (Glycine max); [14]): 50 | Plant response rating, Soybean (soybean (Glycine max); [15]): 65 | Plant response rating, Soybean (soybean (Glycine max); [16]): 70 | Plant response rating, Soybean (soybean (Glycine max); [17]): 80 | Soybean plant response rating (soybean (Glycine max); [18]): 90 | Plant response rating, Soybean (soybean (Glycine max); [19]): 0 | Plant response rating, Soybean (soybean (Glycine max); [21]): 30 | Soybean plant response rating (soybean (Glycine max); [20]): 35 | Plant response rating, Oat, Wild (wild oat (Avena fatua); [14]): 0 | Plant response rating, Oat, Wild (wild oat (Avena fatua); [15]): 0 | Plant response rating, Oat, Wild (wild oat (Avena fatua); [16]): 0 | Plant response rating, Oat, Wild (wild oat (Avena fatua); [17]): 5 | Oat, Wild plant response rating (wild oat (Avena fatua); [18]): 50 | Plant response rating, Oat, Wild (wild oat (Avena fatua); [19]): 0 | Plant response rating, Oat, Wild (wild oat (Avena fatua); [21]): 0 | Oat, Wild plant response rating (wild oat (Avena fatua); [20]): 0 | Plant response rating, Johnsongrass [4, 14]: 10 | Plant response rating, Johnsongrass [4, 15]: 0 | Plant response rating, Johnsongrass [4, 16]: 0 | Johnsongrass plant response rating [4, 18]: 15 | Plant response rating, Johnsongrass [4, 19]: 0 | Plant response rating, Johnsongrass [4, 21]: 0 | Johnsongrass plant response rating [4, 20]: 0 | Plant response rating, Pigweed [5, 14]: 95 | Plant response rating, Pigweed [5, 15]: 75 | Plant response rating, Pigweed [5, 16]: 90 | Plant response rating, Pigweed [5, 17]: 100 | Pigweed plant response rating [5, 18]: 100 | Plant response rating, Pigweed [5, 19]: 85 | Pigweed plant response rating [5, 20]: 90 | Plant response rating, Goosegrass [6, 14]: 98 | Plant response rating, Goosegrass [6, 15]: 15 | Plant response rating, Goosegrass [6, 16]: 50 | Plant response rating, Goosegrass [6, 17]: 70 | Goosegrass plant response rating [6, 18]: 95 | Plant response rating, Goosegrass [6, 19]: 30 | Goosegrass plant response rating [6, 20]: 85 | Plant response rating, Surinam Grass [7, 14]: 5 | Plant response rating, Surinam Grass [7, 15]: 15 | Plant response rating, Surinam Grass [7, 16]: 25 | Plant response rating, Surinam Grass [7, 17]: 40 | Surinam Grass plant response rating [7, 18]: 65 | Plant response rating, Surinam Grass [7, 19]: 0 | Plant response rating, Surinam Grass [7, 21]: 0 | Surinam Grass plant response rating [7, 20]: 0 | Plant response rating, Nutsedge, Yellow [8, 14]: 50 | Plant response rating, Nutsedge, Yellow [8, 15]: 15 | Plant response rating, Nutsedge, Yellow [8, 16]: 45 | Plant response rating, Nutsedge, Yellow [8, 17]: 65 | Nutsedge, Yellow plant response rating [8, 18]: 80 | Plant response rating, Nutsedge, Yellow [8, 19]: 5 | Plant response rating, Nutsedge, Yellow [8, 21]: 10 | Nutsedge, Yellow plant response rating [8, 20]: 40 | Plant response rating, Velvetleaf [9, 14]: 100 | Plant response rating, Velvetleaf [9, 15]: 95 | Plant response rating, Velvetleaf [9, 16]: 100 | Plant response rating, Velvetleaf [9, 17]: 100 | Velvetleaf plant response rating [9, 18]: 100 | Plant response rating, Velvetleaf [9, 19]: 50 | Plant response rating, Velvetleaf [9, 21]: 90 | Velvetleaf plant response rating [9, 20]: 90 | Plant response rating, Morningglory [10, 14]: 100 | Plant response rating, Morningglory [10, 15]: 15 | Plant response rating, Morningglory [10, 16]: 20 | Plant response rating, Morningglory [10, 17]: 55 | Morningglory plant response rating [10, 18]: 70 | Plant response rating, Morningglory [10, 19]: 100 | Plant response rating, Morningglory [10, 21]: 100 | Morningglory plant response rating [10, 20]: 100 | Plant response rating, Kochia (kochia (Kochia scoparia); [14]): 100 | Plant response rating, Kochia (kochia (Kochia scoparia); [15]): 65 | Plant response rating, Kochia (kochia (Kochia scoparia); [16]): 80 | Plant response rating, Kochia (kochia (Kochia scoparia); [17]): 85 | Kochia plant response rating (kochia (Kochia scoparia); [18]): 95 | Plant response rating, Kochia (kochia (Kochia scoparia); [19]): 98 | Kochia plant response rating (kochia (Kochia scoparia); [20]): 100 | Plant response rating, Crabgrass, Large [11, 14]: 100 | Plant response rating, Crabgrass, Large [11, 15]: 60 | Plant response rating, Crabgrass, Large [11, 16]: 70 | Plant response rating, Crabgrass, Large [11, 17]: 80 | Crabgrass, Large plant response rating [11, 18]: 90 | Plant response rating, Crabgrass, Large [11, 19]: 0 | Plant response rating, Crabgrass, Large [11, 21]: 70 | Crabgrass, Large plant response rating [11, 20]: 85 | Plant response rating, Corn (corn (Zea mays); [14]): 5 | Plant response rating, Corn (corn (Zea mays); [15]): 0 | Plant response rating, Corn (corn (Zea mays); [16]): 0 | Plant response rating, Corn (corn (Zea mays); [17]): 10 | Corn plant response rating (corn (Zea mays); [18]): 15 | Plant response rating, Corn (corn (Zea mays); [19]): 0 | Plant response rating, Corn (corn (Zea mays); [21]): 0 | Corn plant response rating (corn (Zea mays); [20]): 0 | Plant response rating, Foxtail, Green [12, 14]: 0 | Plant response rating, Foxtail, Green [12, 15]: 5 | Plant response rating, Foxtail, Green [12, 16]: 10 | Plant response rating, Foxtail, Green [12, 17]: 35 | Foxtail, Green plant response rating [12, 18]: 50 | Plant response rating, Foxtail, Green [12, 19]: 0 | Plant response rating, Foxtail, Green [12, 21]: 0 | Foxtail, Green plant response rating [12, 20]: 0 | Plant response rating, Bromegrass, Downy [13, 14]: 0 | Plant response rating, Bromegrass, Downy [13, 15]: 0 | Plant response rating, Bromegrass, Downy [13, 16]: 0 | Plant response rating, Bromegrass, Downy [13, 17]: 0 | Bromegrass, Downy plant response rating [13, 18]: 45 | Plant response rating, Bromegrass, Downy [13, 19]: 0 | Plant response rating, Bromegrass, Downy [13, 21]: 0 | Bromegrass, Downy plant response rating [13, 20]: 0
